Counter-ions that a name gives are not always drawn. Like-named read-outs stand apart in the source and are kept apart here.
What was measured:
[1] = target: T1, M3 muscarinic receptor subtype (rat submandibular gland) (Rattus norvegicus, UniProt P08483); experiment: Radioligand binding assay, [3H]-N-methylscopolamine, M3
T1 construct: Submandibular glands and heart were isolated and placed in ice cold homogenising buffer; from tissue; host or cells: rat submandibular gland membranes
Description: (§1) The membrane preparation was done with the following modifications: a low spin step of 500 g for 10 minutes at 4° C. was used; the buffer was 20 mM HEPES, 10 mM EDTA, at pH 7.4; the high speed spin was done at 40,000 g and the homogenate was passed through a filter gauge before any spinning.
(§2) Membrane preparation: Submandibular glands and heart were isolated and placed in ice cold homogenising buffer (HEPES 20 mM, 10 mM EDTA, pH 7.4) immediately after sacrifice. The tissues were homogenised in 10 volumes of homogenising buffer and the homogenate was filtered through two layers of wet gauze and filtrate was centrifuged at 500 g for 10 min. The supernatant was subsequently centrifuged at 40,000 g for 20 min. The pellet thus obtained was resuspended in same volume of assay buffer (HEPES 20 mM, EDTA 5 mM, pH 7.4) and were stored at −700C until the time of assay.
(§3) Ligand binding assay: The compounds were dissolved and diluted in DMSO. The membrane homogenates (150-250 μg protein) were incubated in 250 μl of assay buffer (HEPES 20 mM, pH 7.4) at 24-25° C. for 3 h. […] The incubation was terminated by vacuum filtration over GF/B fiber filters (Wallac). The filters were then washed with ice cold 50 mM Tris HCl buffer (pH 7.4). The filter mats were dried and bound radioactivity retained on filters was counted. The IC50 and Kd were estimated by using the non-linear curve fitting program using G Pad Prism software.

[2] = target: T2, M2 muscarinic receptor subtype (rat heart) (Rattus norvegicus, UniProt P10980); experiment: Radioligand binding assay, [3H]-N-methylscopolamine, M2
T2 construct: Submandibular glands and heart were isolated and placed in ice cold homogenising buffer; from tissue; host or cells: rat heart membranes
T2 sequence (P10980 1-466): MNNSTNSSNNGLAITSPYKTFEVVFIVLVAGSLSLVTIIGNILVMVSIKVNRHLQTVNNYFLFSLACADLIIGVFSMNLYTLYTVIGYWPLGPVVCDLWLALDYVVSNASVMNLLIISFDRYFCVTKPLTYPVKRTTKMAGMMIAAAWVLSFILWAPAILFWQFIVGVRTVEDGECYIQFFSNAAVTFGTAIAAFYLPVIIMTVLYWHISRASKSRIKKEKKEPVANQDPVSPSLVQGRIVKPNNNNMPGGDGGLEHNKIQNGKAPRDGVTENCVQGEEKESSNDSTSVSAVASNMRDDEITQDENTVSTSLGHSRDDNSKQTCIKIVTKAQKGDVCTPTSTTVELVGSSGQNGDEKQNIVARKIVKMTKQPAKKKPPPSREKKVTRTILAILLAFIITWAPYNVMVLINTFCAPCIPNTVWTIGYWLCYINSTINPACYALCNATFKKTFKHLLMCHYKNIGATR
Description: as §1, §2, §3

[3] = test system: carbachol evoked changes on bladder pressure, heart rate and salivation; experiment: In vivo experiments using anesthetized rabbit; conditions: for ID50 Bladder Pressure / ID50 Heart Rate Response / ID50 Salivary Response: carbachol 1.5 μg/kg intrarterial, i.v. test compound; for Fold Selectivity Bladder versus Heart Rate / Fold Selectivity Bladder versus Salivary: from ID50 values
Description: In vivo experiments using anesthetized rabbit: The effect of test substances was studied on carbachol evoked changes on bladder pressure, heart rate and salivation. Male rabbits weighing 1.2-3 kg were anaesthetized with urethane (1.5 g/kg), and administered as a slow intravenous infusion through the marginal ear vein. The tracheae were cannulated to maintain airway patency. Blood pressure was recorded from the femoral artery by means of a Statham P10 EZ pressure transducer connected to a Grass model 7D polygraph. The heart rate was monitored by a tachograph triggered by the pulse wave of blood pressure. The other femoral artery was cannulated for the administration of carbachol. Test compound and saline were infused intravenously via the femoral vein.
The bladder was exposed through a midline laparotomy and both the ureters were identified, carefully separated and ligated. The ureters were incised proximally to allow free flow of urine from the kidney to the exterior. Bladder neck was gently held and the urethra was traced and separated from the adjoining tissues. PE canula was introduced into the bladder and ligated. The bladder was drained and subsequently filled with 15 ml of warm saline (37° C.). The other end of the intravesical catheter was connected to the Grass model 7D polygraph through a Statham P10 EZ pressure transducer to monitor the bladder pressure. Care was taken to keep the exposed area moist and warm. A period of 30-60 min was allowed for stabilization of parameters subsequent to surgery. Salivation response was assessed by placing preweighed absorbent cotton gauze in the buccal cavity for 2 minutes after carbachol administration.
At least two stable responses were obtained. These responses were considered as 100%. Subsequently, effect of increasing dose of test compound or vehicle (i.v,12 to 15 min before carbachol challenge) was studied.
The change in bladder pressure, salivation and agonist induced bradycardia were expressed as % change from pretreatment control.

[4] = Receptor Binding Assay M3 Pki, [3H]-N-methylscopolamine, rat submandibular gland membranes
[5] = Receptor Binding Assay M2 pKi, [3H]-N-methylscopolamine, rat heart membranes

T1 sequence (P08483 whole entry): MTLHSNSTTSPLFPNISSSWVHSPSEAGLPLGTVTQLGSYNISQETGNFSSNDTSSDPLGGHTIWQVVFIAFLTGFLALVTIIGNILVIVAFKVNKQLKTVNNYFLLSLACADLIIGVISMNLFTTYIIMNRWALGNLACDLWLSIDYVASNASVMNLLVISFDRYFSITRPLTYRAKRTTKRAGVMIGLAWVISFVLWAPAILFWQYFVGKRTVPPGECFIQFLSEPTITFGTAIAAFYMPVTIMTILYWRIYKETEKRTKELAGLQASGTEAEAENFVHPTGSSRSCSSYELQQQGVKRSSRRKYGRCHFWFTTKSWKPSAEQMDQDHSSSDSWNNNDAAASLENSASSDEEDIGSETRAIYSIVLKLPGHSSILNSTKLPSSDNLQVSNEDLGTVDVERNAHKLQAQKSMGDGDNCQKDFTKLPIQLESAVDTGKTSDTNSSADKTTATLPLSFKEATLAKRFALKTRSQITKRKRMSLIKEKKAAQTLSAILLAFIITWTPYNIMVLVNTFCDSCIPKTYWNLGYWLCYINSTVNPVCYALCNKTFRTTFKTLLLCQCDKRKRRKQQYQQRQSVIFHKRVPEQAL

SMILES	Ki ([1]; Receptor Binding Assay M3 Pki)	Ki ([2]; Receptor Binding Assay M2 pKi)	other results
O=C(NCC1C2CNCC21)C(O)(c1ccccc1)C1CCC(F)(F)C1 (mixture of isomers) [Compound 13, (2R,2S) (1α,5α,6α)-N-[3-azabicyclo[3.1.0]hexyl-6-(aminomethyl)-yl]-2-hydroxy-2-(3,3-difluorocyclopentyl)-2-phenyl acetamide]	2 nM	50.1 nM	
O=C(NC[C@H]1[C@@H]2CNC[C@@H]21)C(O)(c1ccccc1)c1ccccc1 [Compound 16, (2R,2S) (1α,5α,6α)-N-[3-azabicyclo[3.1.0]hexyl-6-(aminomethyl)-yl]-2-hydroxy-2,2-diphenyl acetamide]			Ki [1, 4]: 0.389 nM; Ki [2, 5]: 11.2 nM
O=C(NC[C@H]1[C@@H]2CNC[C@@H]21)[C@@](O)(c1ccccc1)C1CCCC1 [Compound 5, (2S)-(1α,5α,6α)-N-[3-azabicyclo[3.1.0]hexyl-6-(aminomethyl)-yl]-2-hydroxy-2-cyclopentyl 2-phenyl acetamide]	31.6 nM	158 nM	
O=C(NC[C@H]1[C@@H]2CNC[C@@H]21)[C@](O)(c1ccccc1)C1CCC(F)(F)C1 (single isomer, unassigned) [Compound 11]	1.26 nM	39.8 nM	
O=C(NCC1C2CNCC21)C(O)(c1ccccc1)C1CCC1 [Compound 10, (2R,2S) (1α,5α,6α)-N-[3-azabicyclo[3.1.0]hexyl-6-(aminomethyl)-yl]-2-hydroxy-2-cyclobutyl-2-phenyl acetamide tartarate salt]	0.316 nM	6.31 nM	
O=C(NCC1C2CNCC21)C(O)(c1ccccc1)C1CCC(F)(F)C1 (mixture of isomers) [Compound 14, (2R,2S) (1α,5α,6α)-N-[3-azabicyclo[3.1.0]hexyl-6-(aminomethyl)-yl]-2-hydroxy-2-(3,3-difluorocyclopentyl)-2-phenyl acetamide tartarate salt]	1.35 nM	72.4 nM	
O=C(NC[C@H]1[C@@H]2CNC[C@@H]21)[C@](O)(c1ccccc1)C1CCCC1 [Compound 4, (2R)-(1α,5α,6α)-N-[3-azabicyclo[3.1.0]hexyl-6-(aminomethyl)-yl]-2-hydroxy-2-cyclopentyl 2-phenyl acetamide hydrochloride salt]	0.224 nM	3.72 nM	ID50 Bladder Pressure [3]: 2.14 ± 0.42 μg/kg, i.v; ID50 Heart Rate Response [3]: 5.65 ± 0.86 μg/kg, i.v; ID50 Salivary Response [3]: 4.66 ± 0.56 μg/kg, i.v; Fold Selectivity Bladder versus Heart Rate [3]: 3.43 ± 1.02; Fold Selectivity Bladder versus Salivary [3]: 2.37 ± 0.22
Cc1ccc(O)c([C@H](CCN(C(C)C)C(C)C)c2ccccc2)c1 [Tolterodine, reference compound]			ID50 Bladder Pressure [3]: 25.84 ± 4.24 μg/kg, i.v; ID50 Heart Rate Response [3]: 32.54 ± 5.77 μg/kg, i.v; ID50 Salivary Response [3]: 32.5 ± 10.02 μg/kg, i.v
O=C(NC[C@H]1[C@@H]2CNC[C@@H]21)C(O)(c1ccccc1)C1CCCCC1 (mixture of isomers) [Compound 17, (2R,2S) (1α,5α,6α)-N-[3-azabicyclo[3.1.0]hexyl-6-(aminomethyl)-yl]-2-hydroxy-2-cyclohexyl-2-phenyl acetamide]	1.35 nM	50.1 nM	
COC(C(=O)NC[C@H]1[C@@H]2CNC[C@@H]21)(c1ccccc1)C1CCCC1 (mixture of isomers) [Compound 7, (2R,2S) (1α,5α,6α)-N-[3-azabicyclo[3.1.0]hexyl-6-(aminomethyl)-yl]-2-methoxy-2-cyclopentyl-2-phenyl acetamide]			Ki ([1]; [3H]-N-methylscopolamine, rat submandibular gland membranes, read-out: Receptor Binding Assay M3 Pki (converted)): 2.45 nM; Ki ([2]; [3H]-N-methylscopolamine, rat heart membranes, read-out: Receptor Binding Assay M2 pKi (converted)): 25.1 nM
O=C(NCC1C2CNCC21)C(O)(c1ccccc1)C1CCC1 [Compound 9, (2R,2S) (1α,5α,6α)-N-[3-azabicyclo[3.1.0]hexyl-6-(aminomethyl)-yl]-2-hydroxy-2-cyclobutyl-2-phenyl acetamide]	1.26 nM	9.55 nM	
O=C(NC[C@H]1[C@@H]2CNC[C@@H]21)C(O)(c1ccccc1)C1CCCCCC1 (mixture of isomers) [Compound 8, (2R,2S) (1α,5α,6α)-N-[3-azabicyclo[3.1.0]hexyl-6-(aminomethyl)-yl]-2-hydroxy-2-cycloheptyl-2-phenyl acetamide]	1.48 nM	44.7 nM	
O=C(OC[C@H]1[C@@H]2CNC[C@@H]21)C(O)(c1ccccc1)c1ccccc1 [Compound 15, (2R,2S) (1α,5α,6α)-N-[3-azabicyclo[3.1.0]hexyl-6-(aminomethyl)-yl]-2-hydroxy-2,2-diphenyl acetate]			Ki [1, 4]: 0.0661 nM; Ki [2, 5]: 0.219 nM
O=C(NC[C@H]1[C@@H]2CNC[C@@H]21)C(O)(c1ccccc1)C1CCCC1 (mixture of isomers) [Compound 1, (2R,2S) (1α,5α,6α)-N-[3-azabicyclo[3.1.0]hexyl-6-(aminomethyl)-yl]-2-hydroxy-2-cyclopentyl-2-phenyl acetamide]	0.525 nM	12 nM	melting point: 149 to 151 °C
O=C(NC[C@H]1[C@@H]2CNC[C@@H]21)C(O)(c1ccccc1)C1CCCC1 (mixture of isomers) [Compound 2, (2R,2S) (1α,5α,6α)-N-[3-azabicyclo[3.1.0]hexyl-6-(aminomethyl)-yl]-2-hydroxy-2-cyclopentyl-2-phenyl acetamide hydrochloride salt]	0.316 nM	4.37 nM	ID50 Bladder Pressure [3]: 3.93 ± 1.1 μg/kg, i.v; ID50 Heart Rate Response [3]: 21.13 ± 4.47 μg/kg, i.v; ID50 Salivary Response [3]: 7.67 ± 1.19 μg/kg, i.v; Fold Selectivity Bladder versus Heart Rate [3]: 12.6 ± 5.7; Fold Selectivity Bladder versus Salivary [3]: 3.08 ± 0.94
O=C(NCC1C2CNCC21)C(O)(c1ccccc1)C1CCC(F)C1 (mixture of isomers) [Compound 12, (2R,2S) (1α,5α,6α)-N-[3-azabicyclo[3.1.0]hexyl-6-(aminomethyl)-yl]-2-hydroxy-2-(3-fluorocyclopentyl)-2-phenyl acetamide]	0.912 nM	25.1 nM	
CN(C[C@H]1[C@@H]2CNC[C@@H]21)C(=O)C(O)(c1ccccc1)C1CCCC1 (mixture of isomers) [Compound 18, (2R,2S) (1α,5α,6α)-N-[3-azabicyclo[3.1.0]hex-6-ylmethyl)-2-cyclopentyl-2-hydroxy-N-methyl-2-phenyl acetamide]	0.38 nM	2.75 nM	
O=C(NC[C@H]1[C@@H]2CNC[C@@H]21)[C@@](O)(c1ccccc1)C1CCCC1 [Compound 6, (2S)-(1α,5α,6α)-N-[3-azabicyclo[3.1.0]hexyl-6-(aminomethyl)-yl]-2-hydroxy-2-cyclopentyl 2-phenyl acetamide hydrochloride salt]	13.2 nM	77.6 nM	
